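In this assay, cells in 96-well plates receive the compound at five concentrations for 48 hours. Endpoints are linearly interpolated between the surrounding concentrations. GI50 = concentration required for 50% inhibition of growth. TGI is the concentration that stops growth completely.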 Where only a bound is given, the exact number is not on record here.

One test concerns SW-620 colon. Kind of test: growth of human tumour cells (NCI), 48 h.
For the molecule `CC(C)(C)OC(=O)N[C@H]1CCN(C2CCCCC2)C1=O`, the TGI was more than 100 µM.

As to `CC(=O)NC(Cc1ccc(O)cc1)C(=O)O` (configuration not stated), the TGI is more than 100 µM.

On to `O=C(NC(=O)c1ccccc1[N+](=O)[O-])Nc1ccc(Oc2ncc(Br)cn2)c(Cl)c1`, for which the GI50 is less than 0.0187 µM.

The molecule `CC[C@@H]1CC[C@@H]2[C@H](CC[C@]3(C)[C@@H](OC(C)=O)CC[C@@H]23)[C@H]1COC(C)=O` gave a TGI of more than 100 µM.

`CC(=O)O[C@@H]1[C@H](C(C)C)[C@@H](OC(C)=O)C/C(C)=C/CC[C@]2(C)O[C@@H]12` showed a TGI of more than 100 µM.

In turn, `C[C@@H]1CC[C@]2(C(=O)O)CC[C@]3(C)C(=CC[C@@H]4[C@@]5(C)CC[C@H](O)C(C)(C)[C@@H]5CC[C@]43C)[C@@H]2[C@]1(C)O` returned a TGI of 42.1 µM.

In turn, `CC(C)=CCc1c2c(c3occ(-c4ccc(O)cc4)c(=O)c3c1O)CC(C(C)(C)O)O2` (configuration not stated) had a TGI of 64.4 µM.

As for `Nc1nc(Cl)cc(NCC2(CO)CC(=O)C2)n1`, the TGI is more than 100 µM.

The molecule `O=C(N/N=C(/COc1ccc(Cl)cc1)N=Cc1ccncc1)c1ccncc1` registered a TGI of more than 100 µM.

`C1CN(c2nc3c(nnc4nc(N5CCOCC5)sc43)s2)CCO1` yielded a TGI of more than 100 µM.

Molecule `COc1cc2nc3n(c(=O)c2cc1OC)-c1ccc([N+](=O)[O-])cc1C3=O` registered a TGI of 62.2 µM.

Turning to `c1ccc(N=c2sc3ccccc3nc2Nc2ccccc2)cc1`, the TGI was more than 100 µM.

As to `CCC(C(=O)O)c1ccc(OC)cc1` (configuration not stated), the TGI was more than 100 µM.

Consider `COCO[C@@H]1C[C@H]2C(=O)Nc3ccccc3C(=O)N2C1`, for which the TGI was more than 100 µM.

For the molecule `CC1CCC(n2c3cnccc3c3cnc(Nc4ccc5c(n4)CCN(C(=O)CO)C5)nc32)CC1` (configuration not stated), the GI50 is 0.278 µM and the TGI was more than 100 µM.

The molecule `CC(C)CCS(=O)(=O)OCCCCOS(=O)(=O)CCC(C)C` showed a TGI of more than 100 µM.

On to `O=[N+]([O-])c1ccc2c(c1)c(OCc1ccccc1)nn2Cc1ccccc1`, for which the TGI is more than 100 µM.

As to `O=C1/C(=C/c2ccccc2)N=C2Sc3c(nc[nH]c3=O)N12`, the TGI is more than 100 µM.

Turning to `CCOC(=O)C1(C/C=C/CBr)Cc2ccccc2C1=O` (configuration not stated), the TGI amounted to 7.06 µM.

Turning to `COc1ccc(-c2c(C#N)c(-c3ccc(C)cc3)n(NS(=O)(=O)c3ccc(C)cc3)c(=O)c2C#N)cc1`, the TGI was more than 100 µM.

The molecule `COc1ccc(COCCOCc2nc(C#N)c(N)o2)cc1` came in with a TGI of more than 100 µM.

Molecule `Cc1c(O)c(O)cc[n+]1C1OC(CO)C(O)C1O` (configuration not stated) showed a TGI of more than 100 µM.

For a further test, the system named is OVCAR-8 ovarian. The test is described as follows: growth of human tumour cells (NCI), 48 h.
`CC(C)(C)OC(=O)N[C@H]1CCN(C2CCCCC2)C1=O` registered a TGI of more than 100 µM.

As for `CC(=O)NC(Cc1ccc(O)cc1)C(=O)O` (configuration not stated), the TGI was more than 100 µM.

`O=C(NC(=O)c1ccccc1[N+](=O)[O-])Nc1ccc(Oc2ncc(Br)cn2)c(Cl)c1`: the TGI worked out at 0.0736 µM.

`CC[C@@H]1CC[C@@H]2[C@H](CC[C@]3(C)[C@@H](OC(C)=O)CC[C@@H]23)[C@H]1COC(C)=O`: the TGI came to 82 µM.

The molecule `CC(=O)O[C@@H]1[C@H](C(C)C)[C@@H](OC(C)=O)C/C(C)=C/CC[C@]2(C)O[C@@H]12` returned a TGI of more than 100 µM.

For the molecule `C[C@@H]1CC[C@]2(C(=O)O)CC[C@]3(C)C(=CC[C@@H]4[C@@]5(C)CC[C@H](O)C(C)(C)[C@@H]5CC[C@]43C)[C@@H]2[C@]1(C)O`, the TGI was 37.3 µM.

Consider `CC(C)=CCc1c2c(c3occ(-c4ccc(O)cc4)c(=O)c3c1O)CC(C(C)(C)O)O2` (configuration not stated), for which the TGI is 36.2 µM.

Turning to `Nc1nc(Cl)cc(NCC2(CO)CC(=O)C2)n1`, the TGI was more than 100 µM.

For the molecule `O=C(N/N=C(/COc1ccc(Cl)cc1)N=Cc1ccncc1)c1ccncc1`, the TGI was more than 100 µM.

On to `C1CN(c2nc3c(nnc4nc(N5CCOCC5)sc43)s2)CCO1`, for which the TGI is more than 100 µM.

As to `COc1cc2nc3n(c(=O)c2cc1OC)-c1ccc([N+](=O)[O-])cc1C3=O`, the TGI was more than 100 µM.

For `c1ccc(N=c2sc3ccccc3nc2Nc2ccccc2)cc1`, the TGI is more than 100 µM.

`COCO[C@@H]1C[C@H]2C(=O)Nc3ccccc3C(=O)N2C1` had a TGI of more than 100 µM.

For the molecule `CC(C)CCS(=O)(=O)OCCCCOS(=O)(=O)CCC(C)C`, the TGI was more than 100 µM.

`CCCCC#C[I+]c1ccccc1` displayed a TGI of 32.5 µM.

`O=[N+]([O-])c1ccc2c(c1)c(OCc1ccccc1)nn2Cc1ccccc1` came in with a TGI of more than 100 µM.

For `O=C1CCCc2cc3c(cc21)CC1(Cc2ccccc2C1)C3`, the TGI worked out at 43.7 µM.

`O=C1/C(=C/c2ccccc2)N=C2Sc3c(nc[nH]c3=O)N12` registered a TGI of more than 100 µM.

For the molecule `CCOC(=O)c1cn2c(n1)sc1cccc(C)c12`, the TGI is more than 100 µM.

Turning to `CCOC(=O)C1(C/C=C/CBr)Cc2ccccc2C1=O` (configuration not stated), the TGI was 7.34 µM.

As for `COc1ccc(-c2c(C#N)c(-c3ccc(C)cc3)n(NS(=O)(=O)c3ccc(C)cc3)c(=O)c2C#N)cc1`, the TGI is more than 100 µM.

Take `COc1ccc(COCCOCc2nc(C#N)c(N)o2)cc1`: the TGI was more than 100 µM.

With `Cc1c(O)c(O)cc[n+]1C1OC(CO)C(O)C1O` (configuration not stated), the TGI is more than 100 µM.

A further test concerns KM12 colon. Kind of test: growth of human tumour cells (NCI), 48 h.
In the case of `CC(=O)NC(Cc1ccc(O)cc1)C(=O)O` (configuration not stated), the TGI was more than 100 µM.

For `O=C(NC(=O)c1ccccc1[N+](=O)[O-])Nc1ccc(Oc2ncc(Br)cn2)c(Cl)c1`, the GI50 was less than 0.0196 µM.

With `CC[C@@H]1CC[C@@H]2[C@H](CC[C@]3(C)[C@@H](OC(C)=O)CC[C@@H]23)[C@H]1COC(C)=O`, the TGI is 60 µM.

Consider `CC(=O)O[C@@H]1[C@H](C(C)C)[C@@H](OC(C)=O)C/C(C)=C/CC[C@]2(C)O[C@@H]12`, for which the TGI is more than 100 µM.

With `C[C@@H]1CC[C@]2(C(=O)O)CC[C@]3(C)C(=CC[C@@H]4[C@@]5(C)CC[C@H](O)C(C)(C)[C@@H]5CC[C@]43C)[C@@H]2[C@]1(C)O`, the TGI was found to be 26.7 µM.

`CC(C)=CCc1c2c(c3occ(-c4ccc(O)cc4)c(=O)c3c1O)CC(C(C)(C)O)O2` (configuration not stated) returned a TGI of 35.5 µM.

In turn, `Nc1nc(Cl)cc(NCC2(CO)CC(=O)C2)n1` had a TGI of more than 100 µM.

Consider `O=C(N/N=C(/COc1ccc(Cl)cc1)N=Cc1ccncc1)c1ccncc1`, for which the TGI was more than 100 µM.

In turn, `C1CN(c2nc3c(nnc4nc(N5CCOCC5)sc43)s2)CCO1` yielded a TGI of more than 100 µM.

Take `COc1cc2nc3n(c(=O)c2cc1OC)-c1ccc([N+](=O)[O-])cc1C3=O`: the TGI is more than 100 µM.

For the molecule `c1ccc(N=c2sc3ccccc3nc2Nc2ccccc2)cc1`, the TGI was more than 100 µM.

For the molecule `CCC(C(=O)O)c1ccc(OC)cc1` (configuration not stated), the TGI is more than 100 µM.

In turn, `COCO[C@@H]1C[C@H]2C(=O)Nc3ccccc3C(=O)N2C1` came in with a TGI of more than 100 µM.

Regarding `CC1CCC(n2c3cnccc3c3cnc(Nc4ccc5c(n4)CCN(C(=O)CO)C5)nc32)CC1` (configuration not stated), the GI50 is 0.0812 µM and the TGI is more than 100 µM.

`CC(C)CCS(=O)(=O)OCCCCOS(=O)(=O)CCC(C)C` yielded a TGI of more than 100 µM.

The molecule `CCCCC#C[I+]c1ccccc1` yielded a TGI of 27.7 µM.

`O=[N+]([O-])c1ccc2c(c1)c(OCc1ccccc1)nn2Cc1ccccc1` returned a TGI of more than 100 µM.

In turn, `O=C1CCCc2cc3c(cc21)CC1(Cc2ccccc2C1)C3` returned a TGI of 13.7 µM.

Turning to `O=C1/C(=C/c2ccccc2)N=C2Sc3c(nc[nH]c3=O)N12`, the TGI was more than 100 µM.

`CCOC(=O)c1cn2c(n1)sc1cccc(C)c12` yielded a TGI of more than 100 µM.

These data come from PubChem BioAssay (NCI).
